The values below come from patent publication US11001590B2, “Pyrazolopyrimidine derivatives” (BAYER ANIMAL HEALTH GMBH, priority 2016, dated 2021).

For data set [1], the system named is Dirofilaria immitis microfilariae. Nature of the data set: In vitro assay 3: Dirofilaria immitis microfilariae (DIROIM L1), motility. Conditions: 72 h, reduction of motility vs negative control, 72 h incubation.
Data set [2] in a line: log P by HPLC on reversed phase columns (Method L0; [a] acidic, [b] neutral range). To be noted: for log P: HPLC on reversed phase columns (Method L0).
Method: Calibration was done with straight-chain alkan-2-ones (with 3 to 16 carbon atoms) with known log P values (measurement of log P values using retention times with linear interpolation between successive alkanones). Lambda-max-values were determined using UV-spectra from 200 nm to 400 nm and the peak values of the chromatographic signals.
Data set [3] concerns the target C. elegans Slo-1a (Caenorhabditis elegans, UniProt Q95V25). The data set can be described thus: In vitro assay 1: C. elegans Slo-1a, action at a recombinant C. elegans CHO cell line (membrane potential measurement). Conditions: for pE50: CHO cells expressing C. elegans Slo-1a, voltage sensitive dye, FLIPR Tetra, negative decadic logarithm of EC50.
[4] abbreviates: last column of Table 1, column head not shown.

Each structure is given as a SMILES string.

Sequence of C. elegans Slo-1a (Q95V25 whole entry): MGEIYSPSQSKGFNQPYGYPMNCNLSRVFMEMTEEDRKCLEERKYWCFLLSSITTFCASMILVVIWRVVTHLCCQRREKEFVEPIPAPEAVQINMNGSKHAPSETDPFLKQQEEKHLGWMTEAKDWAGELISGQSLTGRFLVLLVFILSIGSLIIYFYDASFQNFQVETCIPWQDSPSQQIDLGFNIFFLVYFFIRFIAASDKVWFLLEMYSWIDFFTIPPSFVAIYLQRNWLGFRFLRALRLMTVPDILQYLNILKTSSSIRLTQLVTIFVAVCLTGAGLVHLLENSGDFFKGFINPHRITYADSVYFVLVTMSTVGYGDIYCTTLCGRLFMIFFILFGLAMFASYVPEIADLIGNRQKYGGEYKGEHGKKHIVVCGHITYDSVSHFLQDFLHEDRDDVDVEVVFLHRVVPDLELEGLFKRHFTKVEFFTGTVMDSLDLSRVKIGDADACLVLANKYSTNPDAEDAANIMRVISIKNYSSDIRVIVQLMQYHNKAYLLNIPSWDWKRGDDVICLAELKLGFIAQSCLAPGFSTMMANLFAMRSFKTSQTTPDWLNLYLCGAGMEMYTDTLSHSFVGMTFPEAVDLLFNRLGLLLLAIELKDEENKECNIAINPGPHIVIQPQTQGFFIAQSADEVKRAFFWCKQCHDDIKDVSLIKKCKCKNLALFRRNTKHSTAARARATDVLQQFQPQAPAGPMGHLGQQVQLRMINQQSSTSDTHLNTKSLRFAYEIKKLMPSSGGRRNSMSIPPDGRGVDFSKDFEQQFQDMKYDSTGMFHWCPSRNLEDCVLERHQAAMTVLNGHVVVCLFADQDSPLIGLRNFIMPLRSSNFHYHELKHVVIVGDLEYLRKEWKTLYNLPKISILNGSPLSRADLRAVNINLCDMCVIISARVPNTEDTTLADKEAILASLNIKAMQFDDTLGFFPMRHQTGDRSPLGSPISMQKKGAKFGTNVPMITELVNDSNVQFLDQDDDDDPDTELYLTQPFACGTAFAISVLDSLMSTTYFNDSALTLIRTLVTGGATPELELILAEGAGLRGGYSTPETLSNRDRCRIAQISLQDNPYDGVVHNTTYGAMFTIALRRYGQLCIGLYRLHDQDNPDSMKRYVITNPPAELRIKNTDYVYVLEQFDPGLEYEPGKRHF

With `Cc1nn2c(C(C)C)c(C(=O)N[C@H]3CCCc4ccccc43)cnc2c1-c1cccc(C(F)(F)F)c1` [Example 3], the 50% effective concentration (EC50) – broadly, the midpoint of the concentration-response curve – was below 10 µg/mL in data set [1] and 50.1 nM in data set [3]. Also, in data set [2], the chromatographic logP (commonly lipophilicity estimated from chromatographic retention) was determined as 5.59.

For `Cc1c(C(=O)N[C@H]2CCc3ccccc32)cnc2c(-c3ccccc3Cl)c(Cl)nn12` [Example 74], the EC50 in data set [1] was below 1 µg/mL; in data set [3], 39.8 nM. In data set [2], the chromatographic logP came to 3.99.

Consider `Cc1c(C(=O)N[C@H]2CCCc3ccccc32)cnc2c(-c3ccccc3Cl)c(Cl)nn12` [Example 77], for which the EC50 in data set [1] is below 10 µg/mL; in data set [3] it was 63.1 nM. Further, the chromatographic logP in data set [2] worked out at 4.26.

On to `CC(C)c1c(C(=O)N[C@H]2CCCc3ccccc32)cnc2c(-c3ccccc3Cl)c(Cl)nn12` [Example 78], for which the EC50 in data set [1] was below 0.1 µg/mL; in data set [3], 31.6 nM. The compound also gave a chromatographic logP in data set [2] of 5.07.

Turning to `Cc1nn2c(C(C)C)c(C(=O)N[C@H]3CCCc4ccccc43)cnc2c1-c1ccccc1F` [Example 94], the EC50 is below 0.1 µg/mL in data set [1] and 15.8 nM in data set [3]. This compound also returned a chromatographic logP in data set [2] of 4.72.

With `Cc1nn2c(C(C)C)c(C(=O)N[C@H]3CCCc4ccccc43)cnc2c1-c1ccc(F)c(F)c1` [Example 102], the results for the EC50 in data set [1] and in data set [3] were below 10 µg/mL and 63.1 nM, respectively. In data set [2], the chromatographic logP was found to be 5.14.

Turning to `Cc1nn2c(C(C)C)c(C(=O)N[C@H]3CCCc4ccccc43)cnc2c1-c1cc(F)ccc1F` [Example 115], the half-maximal effective concentration (EC50) is below 0.1 µg/mL in data set [1] and 15.8 nM in data set [3]. In data set [2], this compound returned a chromatographic logP of 4.89.

With `Cc1nn2c(C(C)C)c(C(=O)N[C@H]3CCOc4ccccc43)cnc2c1-c1ccc(Cl)cc1` [Example 118], the EC50 in data set [1] was below 0.1 µg/mL; in data set [3], 15.8 nM. In data set [2], the chromatographic logP was 4.88.

Consider `Cc1nn2c(C(C)C)c(C(=O)N[C@H]3CCc4ccccc43)cnc2c1-c1cc(Cl)c(Cl)c(Cl)c1` [Example 122], for which the EC50 in data set [1] is below 0.1 µg/mL; in data set [3] it was 12.6 nM. Besides, the chromatographic logP in data set [2] was found to be 6.58.

Turning to `Cc1nn2c(C(C)C)c(C(=O)N[C@H]3CCCc4ccccc43)cnc2c1-c1cc(Cl)c(Cl)c(Cl)c1` [Example 125], the figures for the EC50 in data set [1] and in data set [3] were below 1 µg/mL and 25.1 nM, respectively. This compound yielded a chromatographic logP in data set [2] of 6.86.

Turning to `CC(C)c1c(C(=O)N[C@H]2CCc3ccccc32)cnc2c(-c3c(F)cc(F)cc3F)c(C(F)(F)F)nn12` [Example 133], the EC50 in data set [1] is below 1 µg/mL; in data set [3] it was 79.4 nM. In addition, the chromatographic logP in data set [2] is 5.01.

On to `CC(C)c1c(C(=O)N[C@H]2CCc3ccccc32)cnc2c(-c3c(F)cccc3F)c(C(F)(F)F)nn12` [Example 135], for which the values for the EC50 in data set [1] and in data set [3] were below 0.1 µg/mL and 126 nM, respectively. Moreover, the chromatographic logP in data set [2] was 4.81.

For `CC(C)c1c(C(=O)N[C@H]2CCOc3ccccc32)cnc2c(-c3cccc(OC(F)(F)F)c3)c(C(F)(F)F)nn12` [Example 137], the figures for the EC50 in data set [1] and in data set [3] were below 10 µg/mL and 25.1 nM, respectively. In data set [2], the chromatographic logP was determined as 5.31.

For `CC(C)c1c(C(=O)N[C@H]2CCCc3ccccc32)cnc2c(-c3c(F)cccc3F)c(C(F)(F)F)nn12` [Example 138], the values for the EC50 in data set [1] and in data set [3] were below 10 µg/mL and 316 nM, respectively. For the same compound, in data set [2], the chromatographic logP was found to be 5.06.

Regarding `CC(C)c1c(C(=O)N[C@H]2CCOc3ccccc32)cnc2c(-c3c(F)cccc3F)c(C(F)(F)F)nn12` [Example 139], the EC50 was below 0.1 µg/mL in data set [1] and 126 nM in data set [3]. The compound also returned a chromatographic logP in data set [2] of 4.56.

As for `CC(C)c1c(C(=O)N[C@H]2CCOc3ccccc32)cnc2c(-c3c(F)cc(F)cc3F)c(C(F)(F)F)nn12` [Example 140], the EC50 in data set [1] is below 0.1 µg/mL; in data set [3], 79.4 nM. In data set [2], this compound yielded a chromatographic logP of 4.77.

For the compound `COCc1cccc(-c2c(C(F)(F)F)nn3c(C(C)C)c(C(=O)N[C@H]4CCOc5ccccc54)cnc23)c1` [Example 142], the EC50 in data set [1] is below 10 µg/mL; in data set [3], 79.4 nM. In addition, the chromatographic logP in data set [2] amounted to 4.6.

Regarding `CC(C)c1c(C(=O)N[C@H]2CCOc3ccccc32)cnc2c(-c3cc(Cl)cc(C(F)(F)F)c3)c(C(F)(F)F)nn12` [Example 143], the EC50 was below 10 µg/mL in data set [1] and 12.6 nM in data set [3]. The chromatographic logP in data set [2] was 5.78.

Consider `COCc1cccc(-c2c(C(F)(F)F)nn3c(C(C)C)c(C(=O)N[C@H]4CCc5ccccc54)cnc23)c1` [Example 144], for which the EC50 in data set [1] is below 10 µg/mL; in data set [3], 158 nM. The compound further had a chromatographic logP in data set [2] of 4.87.

As for `Cc1nn2c(C(C)C)c(C(=O)N[C@H]3CCCc4ccccc43)cnc2c1-c1cccc(C(F)F)c1` [Example 145], the EC50 in data set [1] was below 10 µg/mL; in data set [3] it was 31.6 nM. In data set [2], this compound showed a chromatographic logP of 4.93.

`Cc1nn2c(C(C)C)c(C(=O)N[C@H]3CCCc4ccccc43)cnc2c1-c1cccc2c1OC(F)(F)O2` [Example 146]: the EC50 in data set [1] is below 0.1 µg/mL; in data set [3], 25.1 nM. In data set [2], this compound displayed a chromatographic logP of 5.47.

In the case of `Cc1nn2c(C(C)C)c(C(=O)N[C@H]3CCCc4ccccc43)cnc2c1-c1ccc2c(c1)OC(F)(F)O2` [Example 148], the EC50 in data set [1] is below 10 µg/mL; in data set [3] it was 39.8 nM. In data set [2], this compound gave a chromatographic logP of 5.59.

As to `CC(C)c1c(C(=O)N[C@H]2CCc3ccccc32)cnc2c(-c3cccc(OC(F)(F)F)c3)c(C(F)(F)F)nn12` [Example 149], the EC50 in data set [1] is below 10 µg/mL; in data set [3], 63.1 nM. Moreover, the chromatographic logP in data set [2] was found to be 5.55.

Take `CC(C)c1c(C(=O)N[C@H]2CCc3ccccc32)cnc2c(-c3cc(Cl)cc(C(F)(F)F)c3)c(C(F)(F)F)nn12` [Example 150]: the EC50 in data set [1] is below 10 µg/mL; in data set [3] it was 50.1 nM. In data set [2], the chromatographic logP is 6.22.

Turning to `Cc1nn2c(C(C)C)c(C(=O)N[C@H]3CCc4ccccc43)cnc2c1-c1cccc(C(F)F)c1` [Example 151], the 50% effective concentration (EC50) is below 1 µg/mL in data set [1] and 31.6 nM in data set [3]. Further, the chromatographic logP in data set [2] was found to be 4.67.

`CC(C)c1c(C(=O)N[C@H]2CCc3ccccc32)cnc2c(-c3cncc(F)c3)c(C(F)(F)F)nn12` [Example 155]: the EC50 was below 10 µg/mL in data set [1] and 3160 nM in data set [3]. In data set [2], this compound yielded a chromatographic logP of 4.25.

As to `CC(C)c1c(C(=O)N[C@H]2CCOc3ccccc32)cnc2c(-c3cccc(F)c3F)c(Cl)nn12` [Example 281, 2-Chloro-N—((S)-chroman-4-yl)-3-(2,3-difluorophenyl)-7-isopropylpyrazolo[1,5-a]pyrimidine-6-carboxamide], the EC50 is below 0.1 µg/mL in data set [1] and 5.01 nM in data set [3].

As for `CCOc1ccc(-c2c(C)nn3c(C(C)C)c(C(=O)N[C@H]4CCc5ccccc54)cnc23)cc1` [Example 339], the chromatographic logP in data set [2] came out at 4.87. For the same compound, the EC50 in data set [3] was 2510 nM.

For `Cc1nn2c(C(C)C)c(C(=O)N[C@H]3CCCc4ccccc43)cnc2c1-c1cnn(CC(F)(F)F)c1` [Example 359], the log P (usually a log measure of how a compound divides between an organic and an aqueous phase) in data set [2] is 4.11. Moreover, in data set [3], the pE50 was found to be 7.9.

In the case of `Cc1nn2c(C(C)C)c(C(=O)N[C@H]3CCc4ccccc43)cnc2c1-c1cccc(C[S+](C)[O-])c1` (some centres unmarked) [Example 380], the “log P” value in data set [2] is given as 3.05. In data set [3], the pE50 turned out to be 6.

On to `Cc1nn2c(C(C)C)c(C(=O)N[C@H]3CCOc4ccccc43)cnc2c1-c1cnn(CC(F)(F)F)c1` [Example 401], for which the “log P” value in data set [2] (setting [4]) is listed as 3.57. Further, in data set [3], the pE50 is given as 7.9.

For the compound `Cc1nn2c(C3CC3)c(C(=O)N[C@H]3CCc4ccccc43)cnc2c1-c1cnn(CC(F)(F)F)c1` [Example 421], the “log P” value in data set [2] (setting [4]) was determined as 3.17. Moreover, the pE50 in data set [3] came out at 8.1.

Consider `Cc1nn2c(C3CC3)c(C(=O)N[C@H]3CCOc4ccccc43)cnc2c1-c1cnn(CC(F)(F)F)c1` [Example 468], for which, in data set [2] (setting [4]), the “log P” value is 2.95. Also, the pE50 in data set [3] is given as 7.8.

Consider `Cc1nn2c(CN(C)C)c(C(=O)N[C@H]3CCc4ccccc43)cnc2c1-c1cccc(Cl)c1Cl` [Example 522], for which, in data set [2] (setting [4]), the “log P” value is 2.08. The pE50 in data set [3] came to 7.8.

For `Cc1nn2c(CN(C)C)c(C(=O)N[C@H]3CCOc4ccccc43)cnc2c1-c1cccc(Cl)c1Cl` [Example 523], in data set [2] (setting [4]), the “log P” value was determined as 2.17. In data set [3], the pE50 stood at 8.0.

`CSCCN(C)c1c(C(=O)N[C@H]2CCOc3ccccc32)cnc2c(-c3cccc(Cl)c3Cl)c(C)nn12` [Example 529]: in data set [2] (setting [4]), the “log P” value came to 4.69. The pE50 in data set [3] was found to be 8.1.

Regarding `Cc1nn2c(N3CCOCC3)c(C(=O)N[C@H]3CCOc4ccccc43)cnc2c1-c1cccc(C(F)(F)F)c1F` [Example 530], the “log P” value in data set [2] (setting [4]) is 3.99. Moreover, the pE50 in data set [3] is 9.0.

`Cc1nn2c(NC3CC3)c(C(=O)N[C@H]3CCOc4ccccc43)cnc2c1-c1cc(F)cc(F)c1` [Example 539]: the “log P” value in data set [2] (setting [4]) is recorded as 4.46. The pE50 in data set [3] worked out at 6.8.

Regarding `Cc1nn2c(N(C)CCS(C)(=O)=O)c(C(=O)N[C@H]3CCOc4ccccc43)cnc2c1-c1cc(Cl)cc(Cl)c1` [Example 541], in data set [2] (setting [4]), the “log P” value is given as 3.29. Moreover, the pE50 in data set [3] was determined as 8.0.

Regarding `Cc1nn2c(NC3CC3)c(C(=O)N[C@H]3CCOc4ccccc43)cnc2c1-c1cc(Cl)cc(Cl)c1` [Example 542], in data set [2] (setting [4]), the “log P” value was 5.59. For the same compound, in data set [3], the pE50 is listed as 6.5.

Take `Cc1nn2c(NC3CC3)c(C(=O)N[C@H]3CCOc4ccccc43)cnc2c1-c1cccc(Cl)c1Cl` [Example 546]: the “log P” value in data set [2] (setting [4]) was 4.32. Moreover, in data set [3], the pE50 was 8.2.

`Cc1nn2c(C3CC3)c(C(=O)N[C@H]3CCOc4ccccc43)cnc2c1-c1cc(F)cc(F)c1F` [Example 557] showed a chromatographic logP in data set [2] of 3.72. Also, in data set [3], the EC50 was 2 nM.
